Source: US6410545B1, “Lipid lowering quinazoline dietary supplement composition” (Parker Hughes Institute, priority 1998, dated 2002)

What was measured:
Assay type in all cases: in vivo
apo e−/− mice [1] = assay: Regression of pre-existing atherosclerotic lesions (Sudan IV stained aortas) in apo e−/− mice; conditions: apo e−/− mice 7 months on Western diet, 40mg/kg/day for one month
Excerpt: Aortas from untreated (FIG. 6A), vehicle treated (FIG. 6B), and WHI-P164 treated (FIG. 6C) animals were stained with Sudan IV to show the fatty streaks. Aortas of untreated control mice were obtained at 7 months to reflect the pretreatment condition of the test groups. Aortas of vehichle treated or WHI-P164 treated test mice were obtained at 8 months following a one month treatment program. Statistical comparisons indicate **p=0.002 for untreated controls versus WHI-P164 treated test mice and p=0.007 for vehicle controls versus WHI-P164 treated mice.
The effectiveness of WHI-P164 against pre-existing atherosclerotic lesions in apo e^−/− mice kept 7 months on high fat Western diet was examined. apo e^−/− mice were treated with either vehicle control or WHI-P164 at 40mg/kg/day for one month. […] Treatment with WHI-P164 caused a marked regression of the atherosclerotic lesions with fatty streaks covering only 23±2% (n=7) of the aortic surface (FIG. 6B), as compared to 40±5% in untreated mice (n=3) (FIG. 6A) (p=0.002) and 40±5% in the vehicle-treated mice (n=8) (FIG. 6C) (p=0.007).

[2] = tested on: hypercholesterolemic C57B⅙ mice; assay: Serum lipoprotein profile (VLDL-C, HDL-C) by FPLC in C57B⅙ mice on cocoa butter diet; conditions: for HDL-C / VLDL-C: C57B1/6, cocoa butter diet
Experimental: Three- to four-week old C57B⅙ male mice (Taconic, Germantown, N.Y., USA) were kept in micro-isolator cages on a 12-hour day/night cycle and fed the Paigen's cocoa butter diet (15.8% fat, 1.25% cholesterol, and 0.5% sodium cholate) (Harlan Teklad, Madison, Wis., USA) for two weeks prior to initiation of lipid lowering therapy. Paigen's diet is described in Nishina et.al., 1993, J. Lipid Res. 34: 1413-1422.
(§1) Animals were treated with test compounds by intraperitoneal injection daily for 7 days. A range of doses was administered. Control animals received vehicle alone. The effect of quinazoline derivatives on total cholesterol, LDL, HDL, liver enzymes, and glucose was analyzed. The mice tissues were also examined histologically.
(§2) Serum cholesterol profiles were examined by Fast Protein Liquid Chromatography (FPLC) using 100 μl of serum per run. The serum was passed over two Superose™ 6 HR 10/30 connected in tandem equilibrated in phosphate buffered saline (PBS), using the FPLC system from Pharmacia Biotech (Piscataway, N.J., USA) consisting of a controller LCC-501 plus connected to a UV detector (UV-MII), two P500 pumps, and a Frac-100 fraction collector. The FPLC was remotely controlled and operated by the FPLC director program operated on an IBM computer. The system was operated at a flow rate of 0.5 ml/minute and fractions were collected at 0.5 ml/fraction. Cholesterol concentration of each fraction was determined as described above and plotted against the fraction numbers to obtain the serum cholesterol profile.
(§3) To determine the serum concentrations of LDL/β-VLDL and HDL, the sums of the LDL/β-VLDL peak (fractions 29-35) and the HDL peak (fractions 53-63) were divided by 0.1. To obtain the IC50 and the minimum β-VLDL and HDL concentrations, the concentrations of β-VLDL and HDL were plotted against the dosage. Best fitted exponential decay curves were obtained using the equation: Concentration of HDL or LDL/β-VLDL=Aexp(−BX)+E, where A+E equals the concentration of HDL or LDL/β-VLDL at the dosage of 0 μg/day and E equals the mathematical minimum concentration of HDL or β-VLDL, and B equals 0.69/IC50. Best fitted curves were obtained using the Graphpad Inplot program, Graphpad Software, San Diego, Calif., USA.
As shown by their serum lipoprotein profiles (FIG. 1), hypercholesterolemic C57B⅙ mice preferentially accumulated cholesterol rich VLDL (171±19 mg/dL, n=4 versus 7±4 mg/dL, n=3, p=0.0008) but no changes in HDL cholesterol levels (90±9 mg/dL, n=4 versus 86±13 mg/dL, n=3, p=0.8) (Table 2). […] In WHI-P164 treated mice, serum VLDL-C decreased immediately from 171±19 mg/dL (n=4), to 99±13 mg/dL (n=4) at the 1.6 mg/kg/day dose level (P=0.02) and further decreased to 78±15 mg/dL (n=4) at the 16 mg/kg/day dose level (p=0.1) (Table 1). […] Thus, WHI-P164 was only able to reduce VLDL-C by […].

apo e−/− mice [3] = assay: Serum lipoprotein profile (VLDL-C, HDL-C) by FPLC in apo e−/− mice; conditions: for HDL-C / VLDL-C: apo e−/− mice, one week
Experimental: Three- to four-week old apolipoprotein E deficient (apo E^−/−) mice were the progeny of breeding pairs of apo E knockout (apo EKO) mice obtained from Jackson Labs. (Bar Harbor, Me., USA). Mice were fed either regular rodent chow (5% fat and 0% cholesterol) (Teklad-LM 485, Harlan Teklad, Madison, Wis., USA), the Paigen's cocoa butter diet, or the Western diet (21.22% fat and 0.2% cholesterol) (Harlan Teklad, Madison, Wis., USA) for two weeks prior to treatment.
as §1, §2, §3
On regular rodent chow, the serum total cholesterol level of apo e^−/− mice was 836±57 mg/dL (n=47). After one week therapy with 8 mg/kg/day WHI-P164 (n=12), the mean serum total cholesterol level was reduced to 551±29 mg/dL (p=0.02).
When challenged with a cholesterol-rich diet, these animals developed frank hypercholesterolemia due to delayed clearance of intestinal chylomicrons which shuttle the dietary cholesterol from the intestine to the liver. In the present study, all of the 46 ApoE-deficient mice that were fed Western diet (14) became severely hypercholesterolemic with a mean serum total cholesterol level of 1491±59 mg/dL. One week WHI-P164 therapy reduced the mean serum total cholesterol level of hypercholesterolemic apo e^−/− mice to 1194±84 mg/dL (p=O.006) at a dose level of 8 mg/kg/day (n=19) and to 876±57 mg/dL (p<0.0001) at a dose level of 40 mg/kg/day (n=17) (Table 3).

COc1cc2ncnc(C(=O)c3cccc(Br)c3)c2cc1OC [WHI-P164, 4-(3′-bromobenzoyl)-6,7-dimethoxyquinazoline]
Aortic surface covered by fatty streaks stainable by Sudan IV (apo e−/− mice [1]): 23±2% | HDL-C ([2]; dose 1.6 mg/kg): 93 ± 8 mg/dL | VLDL-C ([2]; dose 1.6 mg/kg/day): 99 ± 13 mg/dL | HDL-C ([2]; dose 4.0 mg/kg): 86 ± 5 mg/dL | VLDL-C ([2]; dose 4.0 mg/kg): 106 ± 15 mg/dL | HDL-C ([2]; dose 8.0 mg/kg): 81 ± 9 mg/dL | VLDL-C ([2]; dose 8.0 mg/kg): 101 ± 7 mg/dL | HDL-C ([2]; dose 16.0 mg/kg): 74 ± 10 mg/dL | VLDL-C ([2]; dose 16 mg/kg/day): 78 ± 15 mg/dL | Effect on serum HDL-C levels ([2]; C57B⅙ mice, cocoa butter diet): did not significantly affect | Calculated effective dose (ED50) for VLDL-C lowering ([2]; C57B⅙ mice, cocoa butter diet, fitted exponential decay curve): 0.4 mg/kg/day | Minimum serum VLDL-C level ([2]; C57B⅙ mice, cocoa butter diet, mathematical minimum of fitted curve): 94 ± 9 mg/dL | Reduction of VLDL-C ([2]; C57B⅙ mice, cocoa butter diet, maximal reduction): 45% | Reduction of LDL-C ([2]; hypercholesterolemic C57B⅙ mice on a high calorie diet): 45% | HDL-C (apo e−/− mice [3]; Western diet, 40 mg/kg/day): 90 ± 4 mg/dL | VLDL-C (apo e−/− mice [3]; Western diet, 40 mg/kg/day): 587 ± 4 mg/dL | HDL-C (apo e−/− mice [3]; rodent chow, 8 mg/kg/day): 50 ± 10 mg/dL | VLDL-C (apo e−/− mice [3]; rodent chow, 8 mg/kg/day): 190 ± 13 mg/dL | Reduction of β-VLDL/LDL-cholesterol levels (apo e−/− mice [3]; hypercholesterolemic apo e−/− mice): 63%
